Experimental findings from article PMC11760775 (bioRxiv, 2025) are described below.

Data set [1] relates to mice. As to the kind of experiment: Tail flick acute heat nociception assay, reversal of morphine analgesia. Format: in vivo, mouse. The settings on record: morphine 20mg/kg i.p., 50°C water bath.
Data set [2] concerns mice. As to the kind of experiment: Conditioned place aversion in morphine tolerant mice. The class given is in vivo, mouse.

Entries after “also recorded” stand apart in the source; their conditions may differ.

For the compound `CN1CC[C@]23c4c5ccc(O)c4O[C@H]2[C@@H](O)C=C[C@H]3[C@H]1C5` [morphine], the Tail flick latency result in the data set with mice [1] was “significantly increased”. Turning to `C=CCN1CC[C@]23c4c5ccc(O)c4O[C@H]2C(=O)CC[C@@]3(O)[C@H]1C5` [naloxone], the “CPA score (Test - Pretest)” value in the data set on mice [2] was “avoided the treatment compartment to a greater extent”. For the same compound, the “Time spent in antagonist-paired (withdrawal precipitation) chamber” value with mice [2] (after conditioning versus pre-treatment) is given as “marked decrease; also recorded: significantly less time”.
